According to patent publication US20210392882A1, “METHODS AND COMPOSITIONS FOR IMPROVED INSECT REPELLENCY” (Board of Trustees of Michigan State University, priority 2020, published 2021):

Tested on: mosquito sodium channel (AaNav1-1)
Assay: Two-electrode voltage clamp of sodium channels expressed in Xenopus oocytes
Type: cell-based, Aedes aegypti
Details: 20 ms step-depolarization before and after exposure; FIG. 4J
Text: FIG. 4A-4J illustrate that pyrethrin-induced repellency is synergized by (E)-β-farnesene via activation of both AaOr31 and sodium channels. […] FIG. 4B graphically illustrates repellency elicited by pyrethrin I (P-I) and pyrethrin II (P-II) at 10^−3 dilution in Orlando (wild-type) and orco^−/− mosquitoes (n=9 cages for Orlando control from 2 batches of mosquitoes; n=10 cages for orco−/− control from 2 batches of mosquitoes, P-I: U=31, n=11 cages for Orlando; and n=12 cages for orco−/− from 3 batches of mosquitoes, P-II: U=15; n=14 cages for Orlando; and n=15 cages for orco−/− from 4 batches of mosquitoes). […] The effect of pyrethrum was measured 10 minutes after its application. Pyrethrum-induced tail currents were recorded during a 100-pulse train of 5 milliseconds step depolarizations from −120 to −10 mV with 5 milliseconds inter-pulse intervals (Du et al. (2013)). The percentage of pyrethrum-modified channels was calculated using the following equation: M=[Itail/(Eh−ENa)]/[INa/(Et−ENa)]×100; where Itail is the maximal tail current amplitude, Eh is the potential to which the membrane is repolarized, ENa is the reversal potential for sodium currents determined from the current-voltage curve, INa is the amplitude of the peak current during depolarization before pyrethrum exposure, and Et is the potential of the step depolarization. […]

## CC1(C)C2CCC1(C)C(O)C2 (single isomer, unassigned; (-)) [(−)-borneol]
  effect on peak current and channel gating: no effects
